Experimental data reported in ChEMBL document CHEMBL1201862, “PubChem BioAssay data set” (2004).
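Tested at 5 concentrations; 48 h exposure; 96-well plates; endpoints linearly interpolated, else capped at highest concentration. GI50 marks 50% less growth.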 The source made the active and inactive calls. No stated cut-off is given here; in the data, active = GI50 up to about 1.1 µM and inactive = higher.

Tests used:
Assay in all cases: DTP human tumour cell line panel, 48 h
786-0 = test system: 786-0
A549 = test system: A549
CAKI-1 = test system: CAKI-1
CCRF-CEM = test system: CCRF-CEM
DU-145 = test system: DU-145
HCC 2998 = test system: HCC 2998
HT-29 = test system: HT-29
K562 = test system: K562
MCF7 = test system: MCF7
MDA-N = test system: MDA-N
NCI-H460 = test system: NCI-H460
OVCAR-4 = test system: OVCAR-4
OVCAR-8 = test system: OVCAR-8
SF-295 = test system: SF-295
SNB-19 = test system: SNB-19
SR = test system: SR
TK-10 = test system: TK-10
U-251 = test system: U-251
UACC-257 = test system: UACC-257
UACC-62 = test system: UACC-62

In the case of `COC(=O)[C@H](C)NC(=O)C1(CNC(=O)[C@H](C)NC(=O)OC(C)(C)C)Cc2ccccc2-c2ccccc2C1`, the GI50 (786-0) is reported as 19.6 µM (inactive), the GI50 (A549) is reported as 19.4 µM (inactive) and the GI50 (CAKI-1) is reported as 12.2 µM (inactive). For the same compound, the GI50 (CCRF-CEM) was 18.7 µM (inactive), the GI50 (DU-145) was 14.9 µM (inactive) and the GI50 (HCC 2998) was 24.9 µM (inactive). The GI50 (HT-29) was 17.4 µM (inactive), the GI50 (K562) was 24.7 µM (inactive) and the GI50 (MCF7) was 37.5 µM (inactive). The GI50 (MDA-N) was 26.1 µM (inactive), the GI50 (NCI-H460) was 19.7 µM (inactive) and the GI50 (OVCAR-4) was 21 µM (inactive). For the same compound, the GI50 (OVCAR-8) was 6.78 µM (inactive), the GI50 (SF-295) was 21.4 µM (inactive) and the GI50 (SNB-19) was > 56.9 µM (inactive). For the same compound, the GI50 (SR) was 20 µM (inactive), the GI50 (TK-10) was 27 µM (inactive) and the GI50 (U-251) was 17.9 µM (inactive). The GI50 (UACC-257) was > 48.2 µM (inactive) and the GI50 (UACC-62) was 16.7 µM (inactive).

For `CC(=O)NC1=CC(=O)C=C(Cl)C1=O`, the GI50 (786-0) was > 100 µM (inactive), the GI50 (A549) was > 100 µM (inactive) and the GI50 (CAKI-1) was > 100 µM (inactive). The GI50 (CCRF-CEM) was 22.9 µM (inactive), the GI50 (DU-145) was > 100 µM (inactive) and the GI50 (HCC 2998) was > 100 µM (inactive). For the same compound, the GI50 (HT-29) was > 100 µM (inactive), the GI50 (K562) was 33.7 µM (inactive) and the GI50 (MCF7) was 28.7 µM (inactive). For the same compound, the GI50 (MDA-N) was 16.8 µM (inactive), the GI50 (NCI-H460) was > 100 µM (inactive) and the GI50 (OVCAR-4) was 18.1 µM (inactive). For the same compound, the GI50 (OVCAR-8) was > 100 µM (inactive), the GI50 (SF-295) was > 100 µM (inactive) and the GI50 (SNB-19) was > 100 µM (inactive). The GI50 (SR) was 22.4 µM (inactive), the GI50 (TK-10) was > 100 µM (inactive) and the GI50 (U-251) was > 100 µM (inactive). The GI50 (UACC-257) was 54.1 µM (inactive) and the GI50 (UACC-62) was 37.5 µM (inactive).

In the case of `O=c1cc(CNC2CCCC2)[nH]c(=O)[nH]1`, the GI50 (786-0) is reported as > 100 µM (inactive), the GI50 (A549) is reported as > 100 µM (inactive) and the GI50 (CAKI-1) is reported as > 100 µM (inactive). The GI50 (CCRF-CEM) was > 100 µM (inactive), the GI50 (DU-145) was > 100 µM (inactive) and the GI50 (HCC 2998) was > 100 µM (inactive). The GI50 (HT-29) was > 100 µM (inactive), the GI50 (K562) was > 100 µM (inactive) and the GI50 (MCF7) was > 100 µM (inactive). The GI50 (MDA-N) was > 100 µM (inactive), the GI50 (NCI-H460) was > 100 µM (inactive) and the GI50 (OVCAR-4) was > 100 µM (inactive). The GI50 (OVCAR-8) was > 100 µM (inactive), the GI50 (SF-295) was > 100 µM (inactive) and the GI50 (SNB-19) was > 100 µM (inactive). For the same compound, the GI50 (SR) was > 100 µM (inactive), the GI50 (TK-10) was > 100 µM (inactive) and the GI50 (U-251) was > 100 µM (inactive). For the same compound, the GI50 (UACC-257) was > 100 µM (inactive) and the GI50 (UACC-62) was > 100 µM (inactive).

In the case of `CCSc1nc(C)nc2c1sc1nc3ccccc3n12`, the GI50 (786-0) is reported as > 100 µM (inactive), the GI50 (A549) is reported as > 100 µM (inactive) and the GI50 (CAKI-1) is reported as > 100 µM (inactive). For the same compound, the GI50 (CCRF-CEM) was > 100 µM (inactive), the GI50 (DU-145) was > 100 µM (inactive) and the GI50 (HCC 2998) was > 100 µM (inactive). For the same compound, the GI50 (HT-29) was > 100 µM (inactive), the GI50 (K562) was > 100 µM (inactive) and the GI50 (MCF7) was > 100 µM (inactive). For the same compound, the GI50 (MDA-N) was > 100 µM (inactive), the GI50 (NCI-H460) was > 100 µM (inactive) and the GI50 (OVCAR-4) was > 78.3 µM (inactive). For the same compound, the GI50 (OVCAR-8) was > 100 µM (inactive), the GI50 (SF-295) was > 100 µM (inactive) and the GI50 (SNB-19) was > 100 µM (inactive). The GI50 (SR) was > 100 µM (inactive), the GI50 (TK-10) was > 100 µM (inactive) and the GI50 (U-251) was > 100 µM (inactive). The GI50 (UACC-257) was > 100 µM (inactive) and the GI50 (UACC-62) was > 100 µM (inactive).

With `CO/N=C(\C)c1cccc(Nc2nc3ccccc3c3occc23)c1` the GI50 (786-0) was 13.8 µM (inactive), the GI50 (A549) was 13.1 µM (inactive) and the GI50 (CAKI-1) was 10.8 µM (inactive). For the same compound, the GI50 (CCRF-CEM) was 12.5 µM (inactive), the GI50 (DU-145) was 15.8 µM (inactive) and the GI50 (HCC 2998) was 15.1 µM (inactive). The GI50 (HT-29) was 5.19 µM (inactive), the GI50 (K562) was 16.4 µM (inactive) and the GI50 (MCF7) was 18.1 µM (inactive). For the same compound, the GI50 (MDA-N) was 14.1 µM (inactive), the GI50 (NCI-H460) was 11.8 µM (inactive) and the GI50 (OVCAR-4) was 14.8 µM (inactive). For the same compound, the GI50 (OVCAR-8) was 17.1 µM (inactive), the GI50 (SF-295) was 13 µM (inactive) and the GI50 (SNB-19) was 15.7 µM (inactive). For the same compound, the GI50 (SR) was 11.9 µM (inactive), the GI50 (TK-10) was 12.7 µM (inactive) and the GI50 (U-251) was 15.9 µM (inactive). The GI50 (UACC-257) was 0.0419 µM (active) and the GI50 (UACC-62) was < 0.01 µM (active).

`c1ccc2c(c1)-c1ccccc1C2N1CC2CCC(CC2)C1` was tested, and the GI50 (786-0) was 35.1 µM (inactive), the GI50 (A549) was 28.8 µM (inactive) and the GI50 (CAKI-1) was 32 µM (inactive). The GI50 (CCRF-CEM) was 19.5 µM (inactive), the GI50 (DU-145) was 29.9 µM (inactive) and the GI50 (HCC 2998) was 16.9 µM (inactive). For the same compound, the GI50 (HT-29) was 16.8 µM (inactive), the GI50 (K562) was 17.3 µM (inactive) and the GI50 (MCF7) was 17.5 µM (inactive). The GI50 (MDA-N) was 31.9 µM (inactive), the GI50 (NCI-H460) was 19.8 µM (inactive) and the GI50 (OVCAR-4) was 31.9 µM (inactive). For the same compound, the GI50 (OVCAR-8) was 30 µM (inactive), the GI50 (SF-295) was 19.3 µM (inactive) and the GI50 (SNB-19) was 29.4 µM (inactive). The GI50 (SR) was 20.6 µM (inactive), the GI50 (TK-10) was 37.4 µM (inactive) and the GI50 (U-251) was 17.1 µM (inactive). For the same compound, the GI50 (UACC-257) was 20.6 µM (inactive) and the GI50 (UACC-62) was 19.9 µM (inactive).

`O=S(=O)(Nc1nc2ccccc2nc1Nc1ccc2ccccc2c1)c1ccccc1` was tested, and the GI50 (786-0) was 20.3 µM (inactive), the GI50 (A549) was 5.96 µM (inactive) and the GI50 (CAKI-1) was 27.4 µM (inactive). For the same compound, the GI50 (CCRF-CEM) was 20 µM (inactive), the GI50 (DU-145) was 20.3 µM (inactive) and the GI50 (HCC 2998) was 7.1 µM (inactive). The GI50 (HT-29) was 11 µM (inactive), the GI50 (K562) was 22.5 µM (inactive) and the GI50 (MCF7) was 10.9 µM (inactive). The GI50 (MDA-N) was 19.5 µM (inactive), the GI50 (NCI-H460) was 7.53 µM (inactive) and the GI50 (OVCAR-4) was 4.67 µM (inactive). For the same compound, the GI50 (OVCAR-8) was 14.4 µM (inactive), the GI50 (SF-295) was 5.07 µM (inactive) and the GI50 (SNB-19) was 9.42 µM (inactive). The GI50 (SR) was 13.2 µM (inactive), the GI50 (TK-10) was 27.1 µM (inactive) and the GI50 (U-251) was 5.78 µM (inactive). For the same compound, the GI50 (UACC-257) was 26.1 µM (inactive) and the GI50 (UACC-62) was 4.67 µM (inactive).

With `CC1(C)S[C@@H]2[C@H](NC(=O)C3(N)CCCCC3)C(=O)N2[C@H]1C(=O)O` [CYCLACILLIN] the GI50 (786-0) was > 100 µM (inactive), the GI50 (A549) was > 100 µM (inactive) and the GI50 (CAKI-1) was > 100 µM (inactive). The GI50 (CCRF-CEM) was > 100 µM (inactive), the GI50 (DU-145) was > 100 µM (inactive) and the GI50 (HCC 2998) was > 100 µM (inactive). For the same compound, the GI50 (HT-29) was > 100 µM (inactive), the GI50 (K562) was > 100 µM (inactive) and the GI50 (MCF7) was > 100 µM (inactive). For the same compound, the GI50 (MDA-N) was > 100 µM (inactive), the GI50 (NCI-H460) was > 100 µM (inactive) and the GI50 (OVCAR-4) was > 100 µM (inactive). The GI50 (OVCAR-8) was > 100 µM (inactive), the GI50 (SF-295) was > 100 µM (inactive) and the GI50 (SNB-19) was > 100 µM (inactive). The GI50 (SR) was > 100 µM (inactive), the GI50 (TK-10) was > 100 µM (inactive) and the GI50 (U-251) was > 100 µM (inactive). For the same compound, the GI50 (UACC-257) was > 100 µM (inactive) and the GI50 (UACC-62) was > 100 µM (inactive).

In the case of `C/C1=C/C(=O)O[C@@H]2C[C@@H](CC[C@H](C)/C=C\C=C\CC1)O[C@@](O)([C@@H]1CSC(=O)N1)C2` [LATRUNCULIN A], the GI50 (786-0) is reported as 0.226 µM (active), the GI50 (A549) is reported as 0.564 µM (active) and the GI50 (CAKI-1) is reported as 0.0741 µM (active). For the same compound, the GI50 (CCRF-CEM) was 0.438 µM (active), the GI50 (DU-145) was 2.77 µM (inactive) and the GI50 (HCC 2998) was > 2.97 µM (inactive). For the same compound, the GI50 (HT-29) was 0.417 µM (active), the GI50 (K562) was 3.34 µM (inactive) and the GI50 (MCF7) was 1.28 µM (inactive). For the same compound, the GI50 (MDA-N) was > 5.07 µM (inactive), the GI50 (NCI-H460) was 0.8 µM (active) and the GI50 (OVCAR-4) was 1.02 µM (active). The GI50 (OVCAR-8) was 1.41 µM (inactive), the GI50 (SF-295) was 0.262 µM (active) and the GI50 (SNB-19) was 0.611 µM (active). For the same compound, the GI50 (SR) was 0.653 µM (active), the GI50 (TK-10) was 0.264 µM (active) and the GI50 (U-251) was > 10 µM (inactive). For the same compound, the GI50 (UACC-257) was 2.51 µM (inactive) and the GI50 (UACC-62) was 0.348 µM (active).
